The experiment relates to BDF1 mice, B16 melanoma ip, median survival T/C. In words: NCI In Vivo Anticancer Drug Screen. Data for tumor model B16 Melanoma (intraperitoneal) in B6D2F1 (BDF1) mice. Particulars: endpoint: median survival time, higher = longer survival. Summed up: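 Vehicle-treated animals serve as the reference (C); treated animals (T) are scored for survival or tumor size after tumor transplantation.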

[1] abbreviates: dose: 100.0 mg/kg/injection, schedule: Q01DX009 (ip), vehicle: saline with Tween-80.
The mark [2] stands for this setting: dose: 200.0 mg/kg/injection, schedule: Q01DX009 (ip), vehicle: saline with Tween-80.
The mark [3] stands for this setting: dose: 6.25 mg/kg/injection, schedule: Q01DX009 (ip), vehicle: saline.
The mark [4] stands for this setting: dose: 12.5 mg/kg/injection, schedule: Q01DX009 (ip), vehicle: saline.
[5] abbreviates: dose: 25.0 mg/kg/injection, schedule: Q01DX009 (ip), vehicle: saline.
Setting [6] is: dose: 37.5 mg/kg/injection, schedule: Q04DX003 (ip), vehicle: saline.
[7] abbreviates: dose: 50.0 mg/kg/injection, schedule: Q01DX009 (ip), vehicle: saline with Tween-80.
Setting [8] is: dose: 50.0 mg/kg/injection, schedule: Q01DX009 (ip), vehicle: saline.
Setting [9] is: dose: 75.0 mg/kg/injection, schedule: Q04DX003 (ip), vehicle: saline.
The mark [10] stands for this setting: dose: 150.0 mg/kg/injection, schedule: Q04DX003 (ip), vehicle: saline.
Where [11] appears, read: dose: 6.25 mg/kg/injection, schedule: Q01DX009 (ip), vehicle: Klucel (hydroxypropylcellulose) (HPC).
[12] abbreviates: dose: 12.5 mg/kg/injection, schedule: Q01DX009 (ip), vehicle: Klucel (hydroxypropylcellulose) (HPC).
[13] abbreviates: dose: 25.0 mg/kg/injection, schedule: Q01DX009 (ip), vehicle: Klucel (hydroxypropylcellulose) (HPC).
Where [14] appears, read: dose: 100.0 mg/kg/injection, schedule: Q01DX009 (ip), vehicle: Klucel (hydroxypropylcellulose) (HPC).
[15] abbreviates: dose: 200.0 mg/kg/injection, schedule: Q01DX009 (ip), vehicle: Klucel (hydroxypropylcellulose) (HPC).
[16] abbreviates: dose: 400.0 mg/kg/injection, schedule: Q01DX009 (ip), vehicle: Klucel (hydroxypropylcellulose) (HPC).
[17] abbreviates: dose: 50.0 mg/kg/injection, schedule: Q01DX009 (ip), vehicle: Klucel (hydroxypropylcellulose) (HPC).

SMILES strings stand for the structures. “And” between values parts separate entries of the source, which are not always exact repeats. Equal entries are not always repeated. Inconclusive results and toxic doses are left out.

For `COc1cc(NC(N)=O)ccc1Nc1c2ccc(N)cc2nc2cc(N)ccc12`, the T/C (dose: 0.5 mg/kg/injection, schedule: Q01DX009 (ip), vehicle: saline) was 104 % of control; the T/C (dose: 1.0 mg/kg/injection, schedule: Q01DX009 (ip), vehicle: saline) is 102 % of control; the T/C (dose: 2.0 mg/kg/injection, schedule: Q01DX009 (ip), vehicle: saline) is 108 % of control; the T/C (dose: 4.0 mg/kg/injection, schedule: Q01DX009 (ip), vehicle: saline) is 102 % of control; the T/C (dose: 8.0 mg/kg/injection, schedule: Q01DX009 (ip), vehicle: saline) was 102 % of control; the T/C (dose: 16.0 mg/kg/injection, schedule: Q01DX009 (ip), vehicle: saline) was 104 % of control.
`COc1ccc(C2=CC(=O)N(C(C)C)C2=O)cc1`: the T/C (dose: 20.0 mg/kg/injection, schedule: Q04DX003 (ip), vehicle: saline with Tween-80) was 109 % of control; the T/C (dose: 40.0 mg/kg/injection, schedule: Q04DX003 (ip), vehicle: saline with Tween-80) is 113 % of control; the T/C (dose: 80.0 mg/kg/injection, schedule: Q04DX003 (ip), vehicle: saline with Tween-80) is 111 % of control.
For `O/N=C1\CCCC\C1=N/O.O/N=C1\CCCC\C1=N/O.[Pd]`, the T/C is, setting by setting: (dose: 25.0 mg/kg/injection, schedule: Q04DX003 (ip), vehicle: other) 101 % of control; (dose: 50.0 mg/kg/injection, schedule: Q04DX003 (ip), vehicle: other) 91 % of control; (dose: 100.0 mg/kg/injection, schedule: Q04DX003 (ip), vehicle: other) 93 % of control.
`Cc1cccc(C)c1NC(=O)C(C)C`: the T/C is 100 % of control under setting [1]; 102 % of control under setting [2]; 95 % of control (dose: 400.0 mg/kg/injection, schedule: Q01DX009 (ip), vehicle: saline with Tween-80).
Consider `NC(=S)N/N=C\c1nccc2c(N)cccc12`, for which the T/C (dose: 6.25 mg/kg/injection, schedule: Q01DX009 (ip), vehicle: saline with Tween-80) was 115 % of control and 120 % of control; the T/C under setting [3] was 160 % of control; the T/C (dose: 12.5 mg/kg/injection, schedule: Q01DX009 (ip), vehicle: saline with Tween-80) was 119 % of control; the T/C under setting [4] was 172 % of control; the T/C (dose: 18.8 mg/kg/injection, schedule: Q04DX003 (ip), vehicle: saline) was 155 % of control; the T/C (dose: 25.0 mg/kg/injection, schedule: Q01DX009 (ip), vehicle: saline with Tween-80) was 156 % of control. Besides, the T/C under setting [5] was 179 % of control; the T/C under setting [6] is 168 % of control; the T/C under setting [7] was 164 % of control and 175 % of control; the T/C under setting [8] is 197 % of control; the T/C (dose: 75.0 mg/kg/injection, schedule: Q01DX009 (ip), vehicle: saline with Tween-80) was 150 % of control and 153 % of control and 165 % of control; the T/C under setting [9] is 168 % of control. Also, the T/C under setting [10] was 179 % of control.
`CC12CCC(C1)C(C)(C)C2NCCCN1C(=O)c2ccc3c4c(ccc(c24)C1=O)C(=O)N(CCCNC1C2(C)CCC(C2)C1(C)C)C3=O` (stereo unspecified): the T/C under setting [11] is 100 % of control; the T/C under setting [12] is 96 % of control; the T/C under setting [13] was 106 % of control and 109 % of control.
Regarding `O=C1CCNC(=O)N1OS(=O)(=O)c1ccccc1`, the T/C was 106 % of control under setting [11], 100 % of control under setting [12] and 98 % of control under setting [13].
`CCOC(=O)C(=O)c1c(C)[nH]c2ccccc12`: the T/C runs as follows: under setting [14], 113 % of control; under setting [15], 106 % of control; under setting [16], 106 % of control.
Turning to `C=CCNCC(O)c1ccccc1` (stereo unspecified), the T/C under setting [13] was 103 % of control, the T/C under setting [17] was 106 % of control and the T/C under setting [14] is 109 % of control.
For `O=CNC(CSSCC(NC=O)C(=O)O)C(=O)O` (stereo unspecified), the T/C is, setting by setting: under setting [1], 93 % of control; under setting [2], 95 % of control.
With `CCCCCOC(CN)C(Cl)(Cl)Cl` (stereo unspecified), the T/C was 93 % of control under setting [4], 100 % of control under setting [5] and 102 % of control under setting [8].
Take `COC(=O)C1=C(O)CN(C)C1=O`: the T/C under setting [6] was 102 % of control, the T/C under setting [9] was 100 % of control and the T/C under setting [10] is 108 % of control.
`COC(=O)c1cccc(C)c1O`: the T/C reads like this: under setting [7], 100 % of control; under setting [1], 112 % of control.
Turning to `CC1(C)N=C(N)N=C(N)N1c1cccc(OCCOc2ccc([N+](=O)[O-])cc2)c1`, the T/C reads like this: under setting [13], 101 % of control; under setting [17], 102 % of control; under setting [14], 100 % of control; under setting [15], 102 % of control.
For `Cc1c[n+]2c3ccccc3c3ccccc3c2s1`, the T/C reads like this: (dose: 10.0 mg/kg/injection, schedule: Q01DX009 (ip), vehicle: saline) 105 % of control; (dose: 20.0 mg/kg/injection, schedule: Q01DX009 (ip), vehicle: saline) 105 % of control.
`C[C@]12CC[C@H](OC(=O)COc3ccc(N(CCCl)CCCl)cc3)C[C@@H]1CC[C@@H]1[C@@H]2CC[C@]2(C)NC(=O)CC[C@@H]12`: the T/C (dose: 4.0 mg/kg/injection, schedule: Q01DX009 (ip), vehicle: saline with Tween-80) is 111 % of control and the T/C (dose: 32.0 mg/kg/injection, schedule: Q01DX009 (ip), vehicle: saline with Tween-80) was 109 % of control.
Consider `CCC/C(C)=N/Nc1ccccn1`, for which the T/C was 97 % of control (dose: 12.5 mg/kg/injection, schedule: Q01DX009 (ip), vehicle: saline sonified); 95 % of control (dose: 25.0 mg/kg/injection, schedule: Q01DX009 (ip), vehicle: saline sonified); 97 % of control (dose: 50.0 mg/kg/injection, schedule: Q01DX009 (ip), vehicle: saline sonified); 100 % of control (dose: 100.0 mg/kg/injection, schedule: Q01DX009 (ip), vehicle: saline sonified).
As to `CC1(C)C2CCC1(C)C(COC(=O)c1cc([N+](=O)[O-])cc([N+](=O)[O-])c1)C2` (stereo unspecified), the T/C runs as follows: under setting [14], 96 % of control; under setting [15], 93 % of control; under setting [16], 87 % of control.
For `O=C(Nc1ccccc1F)c1ccc(Cl)c(Cl)c1`, the T/C runs as follows: under setting [17], 100 % of control; under setting [14], 87 % of control; under setting [15], 90 % of control; under setting [16], 94 % of control.
`CC1=CC(O)C(O)C2(C)C1CC(=O)C13COC4OC(CC1C4=O)C(O)C32` (stereo unspecified): the T/C is 106 % of control (dose: 0.4 mg/kg/injection, schedule: Q01DX009 (ip), vehicle: saline with Tween-80); 110 % of control (dose: 0.8 mg/kg/injection, schedule: Q01DX009 (ip), vehicle: saline with Tween-80); 113 % of control (dose: 1.6 mg/kg/injection, schedule: Q01DX009 (ip), vehicle: saline with Tween-80); 110 % of control (dose: 3.2 mg/kg/injection, schedule: Q01DX009 (ip), vehicle: saline with Tween-80); 90 % of control (dose: 5.0 mg/kg/injection, schedule: Q01DX009 (ip), vehicle: saline with Tween-80); 91 % of control (dose: 10.0 mg/kg/injection, schedule: Q01DX009 (ip), vehicle: saline with Tween-80).
In the case of `S=C(S)Nc1cccc2ccccc12`, the T/C was 96 % of control under setting [12], 93 % of control under setting [13] and 103 % of control under setting [17].
Regarding `Cc1cccc(C)c1NC(=O)Nc1cccc(Cl)c1`, the T/C under setting [14] is 100 % of control; the T/C (dose: 100.0 mg/kg/injection, schedule: Q04DX003 (ip), vehicle: Klucel (hydroxypropylcellulose) (HPC)) was 100 % of control; the T/C under setting [15] is 100 % of control; the T/C (dose: 200.0 mg/kg/injection, schedule: Q04DX003 (ip), vehicle: Klucel (hydroxypropylcellulose) (HPC)) was 100 % of control; the T/C under setting [16] is 86 % of control; the T/C (dose: 400.0 mg/kg/injection, schedule: Q04DX003 (ip), vehicle: Klucel (hydroxypropylcellulose) (HPC)) was 100 % of control.
For the compound `Clc1ccc2c(c1)C(=P(c1ccccc1)(c1ccccc1)c1ccccc1)c1cc(Cl)cc(Cl)c1-2`, the T/C under setting [1] was 91 % of control and the T/C under setting [2] was 89 % of control.
Take `CN(C)CCCN1c2ccccc2CCc2ccccc21`: the T/C (dose: 3.12 mg/kg/injection, schedule: Q01DX009 (ip), vehicle: saline) was 95 % of control; the T/C under setting [3] is 102 % of control; the T/C under setting [4] is 104 % of control; the T/C under setting [5] was 93 % of control; the T/C under setting [8] was 104 % of control.

For the origin of these results see PubChem BioAssay AID192 (DTP/NCI, 2004).
